Source: publication PMC10313671, “Accelerating the prediction and discovery of peptide hydrogels with human-in-the-loop” (Nature Communications, 2023)
Where a SMILES comes first, the peptide text is derived from it.

What was measured:
[1] = Peptide hydrogel formation, vial-inverting method; type: physicochemical; parameters: key to EXP / GELATION: 0: no hydrogel; 1: hydrogel; details: for State: ultrasonication, standing 48 h; for State / GELATION / hydrogel formation (in words): vial-inverting method; for Concentration: concentration at which the state was recorded: lowest of 30, 60, 90, 120 mM that gave a gel, 120 mM for non-gelating peptides; for GELATION: 1 = hydrogel, 0 = no hydrogel; for EXP: experimental gelation result of the synthesized peptide; for hydrogel formation (in words): representative hydrogels pH between 7.0 to 7.5
Experimental: After validating the efficiency of APHC in predicting tetrapeptide hydrogels, we detailed the phase state of 165 synthesized tetrapeptides and the observed assembly behavior in an aqueous solution.
This work defines hydrogel formation as a self-supporting, non-flowing mixture of water and hydrogelator by the vial-inverting method. All purified tetrapeptides were dissolved in ultrapure water (to form a 30 mM solution initially), followed by the stepwise addition of 1 N NaOH solution to adjust the overall aqueous pH to 6.5–8.5. Meanwhile, a short-term ultrasonication treatment was applied after each pH adjustment to facilitate peptide solubilization and speed up peptide self-assembly. […] The mixture was allowed to stand in for another 48 h for complete hydrogelation. Upon the absence of gelation phenomenon during the aforementioned loops, we increased the peptide concentration (60 mM, 90 mM, and 120 mM were selected) and re-started such gelation operation loop to explore their gelation feasibility.

[2] = Transmission electron microscope (negative staining) of peptide assemblies; details: for Morphology: TEM, negative staining with uranyl acetate, 120 kV
Experimental: We used the negative staining technique to observe the morphologies formed by peptides. A micropipette was used to load 10 μL of sample solution to a carbon-coated copper grid, and we used a piece of filter paper to remove the excess solution. After rinsing the grid with the deionized water, we used uranyl acetate to stain the sample for 1 minute and then rinsed the grid with deionized water again.

[3] = 120 mM peptide (highest tested) in ultrapure water, pH 6.5-8.5 (1 N NaOH), precipitate, sol, suspension = no gel
[4] = 30 mM peptide in ultrapure water, pH adjusted to 6.5-8.5 with 1 N NaOH, concentration raised 30/60/90/120 mM until gelation
[5] = 60 mM peptide in ultrapure water, pH 6.5-8.5 (1 N NaOH), no gel at 30 mM

C[C@H](NC(=O)[C@H](Cc1ccc(O)cc1)NC(=O)[C@@H](N)Cc1ccccc1)C(=O)N[C@@H](Cc1ccc(O)cc1)C(=O)O [FYAY] (H-FYAY-OH)
State [1, 3]: gel | Concentration [1]: 120000 µM | GELATION ([1]; peptide concentration 120 mM): 1 | Morphology ([2]; line of the table gives 120 mM): sheet

NCC(=O)N[C@@H](Cc1ccccc1)C(=O)N[C@@H](Cc1ccccc1)C(=O)N[C@@H](Cc1ccc(O)cc1)C(=O)O [GFFY] (H-GFFY-OH)
State [1, 4]: gel | Concentration [1]: 30000 µM | GELATION ([1]; peptide concentration 30 mM): 1 | Morphology ([2]; line of the table gives 30 mM): sheet

NCC(=O)NCC(=O)NCC(=O)NCC(=O)O [GGGG] (H-GGGG-OH)
State [1, 3]: sol | Concentration [1]: 120000 µM | GELATION ([1]; peptide concentration 120 mM): 0 | Morphology ([2]; line of the table gives 120 mM): aggregates

CC(C)C[C@H](NC(=O)CN)C(=O)N[C@@H](CC(C)C)C(=O)N[C@@H](Cc1ccc(O)cc1)C(=O)O [GLLY] (H-GLLY-OH)
State [1, 3]: suspension | Concentration [1]: 120000 µM | EXP [1]: 0 | GELATION ([1]; peptide concentration 120 mM): 0 | Morphology ([2]; line of the table gives 120 mM): sheet

CC(C)[C@H](NC(=O)CN)C(=O)N[C@@H](Cc1ccccc1)C(=O)N[C@@H](Cc1ccc(O)cc1)C(=O)O [GVFY] (H-GVFY-OH)
State [1, 4]: gel | Concentration [1]: 30000 µM | GELATION ([1]; peptide concentration 30 mM): 1 | Morphology ([2]; line of the table gives 30 mM): fibre

CC(C)C[C@H](NC(=O)[C@@H](NC(=O)CN)C(C)C)C(=O)N[C@@H](Cc1ccccc1)C(=O)O [GVLF] (H-GVLF-OH)
State [1, 5]: gel | Concentration [1]: 60000 µM | GELATION ([1]; peptide concentration 60 mM): 1 | Morphology ([2]; line of the table gives 60 mM): rod

CSCC[C@H](NC(=O)[C@H](CC(N)=O)NC(=O)[C@@H](NC(=O)CN)C(C)C)C(=O)O [GVNM] (H-GVNM-OH)
State [1, 3]: suspension | Concentration [1]: 120000 µM | GELATION ([1]; peptide concentration 120 mM): 0 | Morphology ([2]; line of the table gives 120 mM): sphere

N[C@@H](Cc1c[nH]cn1)C(=O)N[C@@H](Cc1c[nH]cn1)C(=O)N[C@@H](Cc1c[nH]cn1)C(=O)N[C@@H](Cc1c[nH]cn1)C(=O)O [HHHH] (H-HHHH-OH)
State [1, 3]: sol | Concentration [1]: 120000 µM | GELATION ([1]; peptide concentration 120 mM): 0 | Morphology ([2]; line of the table gives 120 mM): aggregates

CC(C)C[C@H](NC(=O)[C@H](CC(C)C)NC(=O)[C@@H](N)Cc1c[nH]cn1)C(=O)N[C@@H](Cc1ccccc1)C(=O)O [HLLF] (H-HLLF-OH)
State ([1]; 90 mM peptide in ultrapure water, pH 6.5-8.5 (1 N NaOH), no gel at lower concentrations): gel | Concentration [1]: 90000 µM | GELATION ([1]; peptide concentration 90 mM): 1 | Morphology ([2]; line of the table gives 90 mM): sheet

CC[C@H](C)[C@H](N)C(=O)N[C@@H](Cc1ccccc1)C(=O)N[C@H](C(=O)N[C@@H](Cc1ccc(O)cc1)C(=O)O)[C@@H](C)CC [IFIY] (H-IFIY-OH)
State [1, 5]: gel | Concentration [1]: 60000 µM | GELATION ([1]; peptide concentration 60 mM): 1 | Morphology ([2]; line of the table gives 60 mM): hybrid(particle+fibre)

CC[C@H](C)[C@H](N)C(=O)N[C@@H](Cc1ccccc1)C(=O)N[C@@H](Cc1ccc(O)cc1)C(=O)N[C@H](C(=O)O)[C@@H](C)O [IFYT] (H-IFYT-OH)
State [1, 5]: gel | Concentration [1]: 60000 µM | GELATION ([1]; peptide concentration 60 mM): 1 | hydrogel formation (in words) [1]: hydrogels | Morphology ([2]; line of the table gives 60 mM): sheet | morphology by TEM (in words) ([2]; aqueous solution or hydrogel, negative staining): interlaced nanosheets

CC[C@H](C)[C@H](N)C(=O)N[C@@H](Cc1c[nH]cn1)C(=O)N[C@@H](Cc1ccccc1)C(=O)N[C@H](C(=O)O)C(C)C [IHFV] (H-IHFV-OH)
State [1, 3]: sol | Concentration [1]: 120000 µM | GELATION ([1]; peptide concentration 120 mM): 0 | Morphology ([2]; line of the table gives 120 mM): sphere

CC[C@H](C)[C@H](N)C(=O)N[C@H](C(=O)N[C@H](C(=O)N[C@H](C(=O)O)[C@@H](C)CC)[C@@H](C)CC)[C@@H](C)CC [IIII] (H-IIII-OH)
State [1, 4]: gel | Concentration [1]: 30000 µM | GELATION ([1]; peptide concentration 30 mM): 1 | Morphology ([2]; line of the table gives 30 mM): needle

CC[C@H](C)[C@H](N)C(=O)N[C@H](C(=O)N[C@H](C(=O)N[C@@H](CCCNC(=N)N)C(=O)O)[C@@H](C)CC)[C@@H](C)CC [IIIR] (H-IIIR-OH)
State [1, 3]: suspension | Concentration [1]: 120000 µM | GELATION ([1]; peptide concentration 120 mM): 0 | Morphology ([2]; line of the table gives 120 mM): aggregates

CC[C@H](C)[C@H](N)C(=O)N[C@@H](CC(C)C)C(=O)N[C@H](C(=O)N[C@H](C(=O)O)C(C)C)C(C)C [ILVV] (H-ILVV-OH)
State [1, 4]: gel | Concentration [1]: 30000 µM | GELATION ([1]; peptide concentration 30 mM): 1 | Morphology ([2]; line of the table gives 30 mM): aggregates

CC[C@H](C)[C@H](N)C(=O)N[C@@H](CCSC)C(=O)N[C@H](C(=O)N[C@H](C(=O)O)C(C)C)C(C)C [IMVV] (H-IMVV-OH)
State [1, 4]: gel | Concentration [1]: 30000 µM | GELATION ([1]; peptide concentration 30 mM): 1 | hydrogel formation (in words) [1]: can form hydrogel | Morphology ([2]; line of the table gives 30 mM): aggregates

CC[C@H](C)[C@H](N)C(=O)N[C@@H](CCC(N)=O)C(=O)N[C@H](C(=O)N[C@H](C(=O)O)[C@@H](C)CC)[C@@H](C)CC [IQII] (H-IQII-OH)
State [1, 5]: gel | Concentration [1]: 60000 µM | GELATION ([1]; peptide concentration 60 mM): 1 | Morphology ([2]; line of the table gives 60 mM): hybrid(sphere+fibre)

CC[C@H](C)[C@H](N)C(=O)N[C@@H](CCCNC(=N)N)C(=O)N[C@H](C(=O)N[C@@H](Cc1c[nH]c2ccccc12)C(=O)O)C(C)C [IRVW] (H-IRVW-OH)
State [1, 3]: suspension | Concentration [1]: 120000 µM | GELATION ([1]; peptide concentration 120 mM): 0 | Morphology ([2]; line of the table gives 120 mM): sphere

CC[C@H](C)[C@H](N)C(=O)N[C@H](C(=O)N[C@@H](Cc1ccccc1)C(=O)N[C@@H](Cc1c[nH]c2ccccc12)C(=O)O)C(C)C [IVFW] (H-IVFW-OH)
State [1, 3]: gel | Concentration [1]: 120000 µM | GELATION ([1]; peptide concentration 120 mM): 1 | Morphology ([2]; line of the table gives 120 mM): sphere

CC[C@H](C)[C@H](N)C(=O)N[C@H](C(=O)N[C@H](C(=O)N[C@@H](Cc1ccccc1)C(=O)O)[C@@H](C)CC)C(C)C [IVIF] (H-IVIF-OH)
State [1, 4]: gel | Concentration [1]: 30000 µM | GELATION ([1]; peptide concentration 30 mM): 1 | Morphology ([2]; line of the table gives 30 mM): sphere

CC[C@H](C)[C@H](N)C(=O)N[C@H](C(=O)N[C@H](C(=O)N[C@H](C(=O)O)[C@@H](C)CC)[C@@H](C)CC)C(C)C [IVII] (H-IVII-OH)
State [1, 4]: gel | Concentration [1]: 30000 µM | GELATION ([1]; peptide concentration 30 mM): 1 | Morphology ([2]; line of the table gives 30 mM): sheet

CC[C@H](C)[C@H](N)C(=O)N[C@H](C(=O)N[C@H](C(=O)N[C@@H](Cc1ccc(O)cc1)C(=O)O)[C@@H](C)CC)C(C)C [IVIY] (H-IVIY-OH)
State [1, 5]: gel | Concentration [1]: 60000 µM | GELATION ([1]; peptide concentration 60 mM): 1 | Morphology ([2]; line of the table gives 60 mM): aggregates

CC[C@H](C)[C@H](N)C(=O)N[C@@H](Cc1c[nH]c2ccccc12)C(=O)N[C@H](C(=O)N[C@H](C(=O)O)[C@@H](C)CC)[C@@H](C)CC [IWII] (H-IWII-OH)
State [1, 3]: suspension | Concentration [1]: 120000 µM | EXP [1]: 0 | GELATION ([1]; peptide concentration 120 mM): 0 | Morphology ([2]; line of the table gives 120 mM): aggregates

CC[C@H](C)[C@H](N)C(=O)N[C@@H](Cc1c[nH]c2ccccc12)C(=O)N1CCC[C@H]1C(=O)N[C@@H](Cc1c[nH]c2ccccc12)C(=O)O [IWPW] (H-IWPW-OH)
State [1, 3]: precipitate | Concentration [1]: 120000 µM | GELATION ([1]; peptide concentration 120 mM): 0 | Morphology ([2]; line of the table gives 120 mM): aggregates

CC(C)C[C@H](NC(=O)[C@H](CC(C)C)NC(=O)[C@H](Cc1ccccc1)NC(=O)[C@@H](N)CCCCN)C(=O)O [KFLL] (H-KFLL-OH)
State [1, 3]: sol | Concentration [1]: 120000 µM | Morphology ([2]; line of the table gives 120 mM): aggregates

NCCCC[C@H](NC(=O)[C@H](CCCCN)NC(=O)[C@H](CCCCN)NC(=O)[C@@H](N)CCCCN)C(=O)O [KKKK] (H-KKKK-OH)
State [1, 3]: sol | Concentration [1]: 120000 µM | GELATION ([1]; peptide concentration 120 mM): 0 | Morphology ([2]; line of the table gives 120 mM): blank

CC(C)C[C@H](NC(=O)[C@H](CC(C)C)NC(=O)[C@@H](N)CCCCN)C(=O)N[C@@H](Cc1ccccc1)C(=O)O [KLLF]
State [1, 4]: gel | Concentration [1]: 30000 µM | GELATION ([1]; peptide concentration 30 mM): 1 | Morphology ([2]; line of the table gives 30 mM): particle

CSCC[C@H](NC(=O)[C@@H](N)CCCCN)C(=O)N[C@@H](CC(C)C)C(=O)N[C@@H](Cc1ccccc1)C(=O)O [KMLF] (H-KMLF-OH)
State [1, 3]: suspension | Concentration [1]: 120000 µM | GELATION ([1]; peptide concentration 120 mM): 0 | Morphology ([2]; line of the table gives 120 mM): aggregates

CC(C)C[C@H](NC(=O)[C@H](Cc1c[nH]c2ccccc12)NC(=O)[C@@H](NC(=O)[C@@H](N)CCCCN)C(C)C)C(=O)O [KVWL] (H-KVWL-OH)
State [1, 5]: gel | Concentration [1]: 60000 µM | GELATION ([1]; peptide concentration 60 mM): 1 | Morphology ([2]; line of the table gives 60 mM): fibre

CC(C)C[C@H](NC(=O)[C@H](C)NC(=O)[C@@H](N)CC(C)C)C(=O)N[C@@H](CCCNC(=N)N)C(=O)O [LALR] (H-LALR-OH)
State [1, 3]: suspension | Concentration [1]: 120000 µM | GELATION ([1]; peptide concentration 120 mM): 0 | Morphology ([2]; line of the table gives 120 mM): aggregates
